Measured values: paper PMC7932521, “2-aminobenzimidazoles for leishmaniasis: From initial hit discovery to in vivo profiling” (PLoS Neglected Tropical Diseases, 2021)

System: not listed separately
Assay: Experimental distribution coefficient (eLogD)
Assay type: physicochemical
Details: reverse stationary phase HPLC column (Ascentis RP-Amide), pH 7.4; S1 Data
Experimental: To determine the lipophilicity of the compounds, a methodology based on the retention time of molecules in reverse stationary phase (Ascentis RP-Amide HPLC column) was used. The chromatogram was obtained using LC-MS/MS. Test compounds were prepared at 1.0 μg/mL by adding the stock solution at (1:1) mobile phases A:B + internal standard at 200nM (A: 5% methanol in 10mM ammonium acetate pH 7.4, B: 100% methanol), DMSO concentration must be lower than 2%. […] The retention time (in minutes) of each of the eight standards was plotted against their LogD values. The resulting equation for the calibration curve (y = mx + b) was used to calculate the LogD values for the test compounds.

**Q.** For `O=C(Cc1ccc(F)cc1)Nc1nc2cc(F)ccc2n1C1CCNCC1` [Compound 25, O=C(Nc1n(C2CCNCC2)c(c3n1)ccc(F)c3)Cc4ccc(F)cc4], which chromatographic logD is on record?
**A.** The chromatographic logD was 3.08.

**Q.** For `O=C(Cc1ccc(Cl)cc1)Nc1nc2ccc(F)cc2n1CC(F)(F)F` [Compound 23, Fc1cc2c(nc(NC(=O)Cc3ccc(Cl)cc3)n2CC(F)(F)F)cc1], which chromatographic logD is on record?
**A.** Its chromatographic logD is 4.46.

Same assay, conditions: reverse-phase HPLC retention (Ascentis RP-Amide column); experimental, pH 7.4

**Q.** For `CCCn1c(NC(=O)Cc2ccc(Cl)cc2)nc2ccccc21` [Compound 1], which chromatographic logD is on record?
**A.** The chromatographic logD was 4.6.

**Q.** Which chromatographic logD does the source give for `CC(C)(C)Cn1c(NC(=O)Cc2ccc(C(F)(F)F)cc2)nc2ccccc21` [Compound 20, CC(Cn1c(cccc2)c2nc1NC(Cc3ccc(C(F)(F)F)cc3)=O)(C)C] here?
**A.** Its chromatographic logD is 4.9.

System: not listed separately
Assay: Parallel artificial membrane permeability assay (PAMPA)
Assay type: in vitro ADME
Details: PAMPA, S1 Data; read-out: PAMPA Pe
Experimental: To determine the passive permeability of the compounds, a 96-well plate containing membranes pre-coated with lipids (Corning Gentest # 353015) was used. The solutions of the compounds were prepared by diluting the stock solutions (10mM) in phosphate buffered saline (PBS) pH 6.5 at a final concentration of 10μM. The solutions diluted in PBS pH 6.5 were then added to the donor portion of the plate (300 μl/well), while PBS pH 7.4 (200 μl/well) was added to the acceptor portion. The two portions of the plate were then coupled, and the system was incubated for 5 h at 37°C. At the end of the incubation, samples were collected from the donor and acceptor plates, and then added to plates containing quench solution (10% water and 90% methanol: acetonitrile (50:50) + 50 nM tolbutamide). The final concentrations of compounds in the donor, acceptor, and initial solution (T0) wells were analyzed using LC-MS/MS. The results were used to calculate an effective permeability (Pe) value. The PAMPA assay was performed in triplicate (n = 3).

**Q.** With `CN1CCC(n2c(NC(=O)c3ccnn3C)nc3ccc(C#N)cc32)CC1` [Compound 51, O=C(c1ccnn1C)Nc2nc(ccc(C#N)c3)c3n2C4CCN(C)CC4] as the compound, how does the Papp at 5 h, 10 μM read?
**A.** Its Papp at 5 h, 10 μM is 2.91 ×10⁻⁶ cm/s.

**Q.** With `O=C(Cc1ccc(F)cc1)Nc1nc2cc(F)ccc2n1C1CCNCC1` [Compound 25, O=C(Nc1n(C2CCNCC2)c(c3n1)ccc(F)c3)Cc4ccc(F)cc4] as the compound, how does the Papp at 5 h, 10 μM read?
**A.** Its Papp at 5 h, 10 μM is 0.19 ×10⁻⁶ cm/s.

**Q.** Which Papp at 5 h, 10 μM does the source give for `O=C(Cc1ccc(Cl)cc1)Nc1nc2ccc(F)cc2n1CC(F)(F)F` [Compound 23, Fc1cc2c(nc(NC(=O)Cc3ccc(Cl)cc3)n2CC(F)(F)F)cc1] here?
**A.** Its Papp at 5 h, 10 μM is 7.07 ×10⁻⁶ cm/s.

Same assay, conditions: passive permeability; read-out: PAMPA

**Q.** For `CCCn1c(NC(=O)Cc2ccc(Cl)cc2)nc2ccccc21` [Compound 1], which Papp at 5 h, 10 μM is on record?
**A.** Its Papp at 5 h, 10 μM is 6.7 ×10⁻⁶ cm/s.

System: Leishmania infantum MHOM/MA(BE)/67/ITMAP263 amastigotes
Assay: L. infantum intracellular amastigote assay in PMM
Assay type: cell-based
Details: CC50 / L. infantum IC50
Experimental: (§1) Leishmania infantum MHOM/MA(BE)/67/ITMAP263 amastigotes were collected from the spleen of infected donor Golden hamsters. Primary peritoneal mouse macrophages (PMM) were used as host cells for in vitro assays. PMM were collected from Swiss mice after 2 days of peritoneal stimulation with a 2% suspension of potato starch and maintained in RPMI-1640 medium supplemented with 200 mM L-glutamine, antibiotics and 5% FCS at 37°C and 5% CO2. Promastigotes of L. infantum chagasi (luciferase) (MHOM/BR/2005/NLC) obtained as described in Reimão et al.,[27] were grown in M199 medium supplemented with 10% FCS, 0.25% hemin, 32 μg/ml hygromycin and 2% sterile human urine at 25°C and 5% CO2.
(§2) Stock solutions of the compounds at 20 mM were prepared in 100% DMSO. Next, the compounds were serially pre-diluted in DMSO followed by a further dilution in demineralized water to assure a final in-test DMSO concentration below 1%. The compounds were tested at 4-fold dilutions starting at 64 μM.
For the antileishmania in vitro assays, 3×10^4 PMM/well were seeded in 96-well plates. After 24h, 5×10^5 amastigotes/well were added and incubated for 2h at 37°C. Next, the compounds in 4-fold serial dilutions were added and the plates were further incubated for 5 days (37°C, 5% CO2). Parasite burdens were assessed using an inverted microscope after Giemsa staining. The results were expressed as percent reduction in parasite burdens compared to negative control wells (100% growth) and IC50 values were determined. Values represent the geometric mean of at least two independent experiments. Miltefosine was used as the positive control in all plates.

**Q.** For `CN1CCC(n2c(NC(=O)c3ccnn3C)nc3ccc(C#N)cc32)CC1` [Compound 51, O=C(c1ccnn1C)Nc2nc(ccc(C#N)c3)c3n2C4CCN(C)CC4], which “SI: selectivity index (CC50 / IC50)” value is on record?
**A.** Its value is 3.

Same assay, conditions: Leishmania infantum, 120 h, intracellular amastigotes in PMM, 5 days; read-out: L. infantum IC50

**Q.** For `CCCn1c(NC(=O)Cc2ccc(Cl)cc2)nc2ccccc21` [Compound 1], which IC50 is on record?
**A.** Its IC50 is 12 µM.

**Q.** Which IC50 does the source give for `CN1CCC(n2c(NC(=O)c3ccnn3C)nc3ccc(C#N)cc32)CC1` [Compound 51, O=C(c1ccnn1C)Nc2nc(ccc(C#N)c3)c3n2C4CCN(C)CC4] here?
**A.** Its IC50 is 20 µM.

**Q.** Which IC50 does the source give for `CC(C)(C)Cn1c(NC(=O)Cc2ccc(C(F)(F)F)cc2)nc2ccccc21` [Compound 20, CC(Cn1c(cccc2)c2nc1NC(Cc3ccc(C(F)(F)F)cc3)=O)(C)C] here?
**A.** The IC50 was 8.2 µM.

**Q.** Which IC50 does the source give for `O=C(Cc1ccc(F)cc1)Nc1nc2cc(F)ccc2n1C1CCNCC1` [Compound 25, O=C(Nc1n(C2CCNCC2)c(c3n1)ccc(F)c3)Cc4ccc(F)cc4] here?
**A.** The IC50 was 34 µM.

**Q.** With `O=C(Cc1ccc(Cl)cc1)Nc1nc2ccc(F)cc2n1CC(F)(F)F` [Compound 23, Fc1cc2c(nc(NC(=O)Cc3ccc(Cl)cc3)n2CC(F)(F)F)cc1] as the compound, how does the IC50 read?
**A.** Its IC50 is 4.8 µM.

Same assay, conditions: Leishmania infantum, S1 Data; read-out: L. infantum IC50

**Q.** For `CN1CCC(n2c(NC(=O)c3ccnn3C)nc3ccc(C#N)cc32)CC1` [Compound 51, O=C(c1ccnn1C)Nc2nc(ccc(C#N)c3)c3n2C4CCN(C)CC4], which IC50 is on record?
**A.** Its IC50 is 20.2 µM.

**Q.** With `CC(C)(C)Cn1c(NC(=O)Cc2ccc(C(F)(F)F)cc2)nc2ccccc21` [Compound 20, CC(Cn1c(cccc2)c2nc1NC(Cc3ccc(C(F)(F)F)cc3)=O)(C)C] as the compound, how does the IC50 read?
**A.** Its IC50 is 8.18 µM.

**Q.** For `O=C(Cc1ccc(F)cc1)Nc1nc2cc(F)ccc2n1C1CCNCC1` [Compound 25, O=C(Nc1n(C2CCNCC2)c(c3n1)ccc(F)c3)Cc4ccc(F)cc4], which IC50 is on record?
**A.** The IC50 was 34.4 µM.

**Q.** With `O=C(Cc1ccc(Cl)cc1)Nc1nc2ccc(F)cc2n1CC(F)(F)F` [Compound 23, Fc1cc2c(nc(NC(=O)Cc3ccc(Cl)cc3)n2CC(F)(F)F)cc1] as the compound, how does the IC50 read?
**A.** Its IC50 is 4.82 µM.

System: not listed separately
Assay: Mouse liver microsomal stability
Assay type: in vitro ADME
Details: S1 Data
Experimental: The metabolic stability of the compounds was evaluated in human (pool of 200 donors, XenoTech) and mouse liver microsomes (CD1 mouse, GIBCO). Test compounds were prepared at a concentration of 0.5 μM and incubated with 0.25 mg/mL liver microsomes at pH 7.4 and 37°C. The reaction was started by addition of NADPH at […]. Samples were taken at 0, 5, 10, 15, 20 and 30 minutes. The reaction was stopped by the addition of acetonitrile:methanol (1:1) containing an internal standard (tolbutamide at 50 nM). Compounds were quantified by liquid chromatography triple quadrupole mass spectrometry (LC-MS/MS). Peak area ratios (analyte/internal standard) were converted to % remaining using the area ratio at time 0 as 100%. Half-life (t1/2 = ln(2)/k) in minutes and intrinsic clearance (Clint = k x 1000/(0.25)) in μL/min/mg were calculated using a non-linear regression from % remaining versus incubation time. From this plot, the slope (k) was determined. The analysis conditions were: analytical column (Gemini C18, […], Phenomenex), electrospray ionization source (ESI) in positive and negative mode, mobile phase A (water + 0.1% formic acid) and B (acetonitrile + 0.1% formic acid), flow rate of 0.7 mL/min.

**Q.** With `CN1CCC(n2c(NC(=O)c3ccnn3C)nc3ccc(C#N)cc32)CC1` [Compound 51, O=C(c1ccnn1C)Nc2nc(ccc(C#N)c3)c3n2C4CCN(C)CC4] as the compound, how does the “MLM CLint” value read?
**A.** Its value is 72 µL/min/mg.

Same assay, conditions: mouse liver microsome intrinsic clearance

**Q.** With `CCCn1c(NC(=O)Cc2ccc(Cl)cc2)nc2ccccc21` [Compound 1] as the compound, how does the “MLM CLint” value read?
**A.** Its value is 3094 µL/min/mg.

System: PMM (Primary Mouse Macrophages)
Assay: Cytotoxicity on primary peritoneal mouse macrophages
Assay type: cell-based
Details: Mus musculus, Macrophage, read-out: PMM IC50
Experimental: as §1, §2

**Q.** With `CCCn1c(NC(=O)Cc2ccc(Cl)cc2)nc2ccccc21` [Compound 1] as the compound, how does the IC50 read?
**A.** Its IC50 is greater than 64 µM.

**Q.** With `CN1CCC(n2c(NC(=O)c3ccnn3C)nc3ccc(C#N)cc32)CC1` [Compound 51, O=C(c1ccnn1C)Nc2nc(ccc(C#N)c3)c3n2C4CCN(C)CC4] as the compound, how does the IC50 read?
**A.** Its IC50 is 50.8 µM.

**Q.** Which IC50 does the source give for `CC(C)(C)Cn1c(NC(=O)Cc2ccc(C(F)(F)F)cc2)nc2ccccc21` [Compound 20, CC(Cn1c(cccc2)c2nc1NC(Cc3ccc(C(F)(F)F)cc3)=O)(C)C] here?
**A.** Its IC50 is 22.6 µM.

**Q.** For `O=C(Cc1ccc(F)cc1)Nc1nc2cc(F)ccc2n1C1CCNCC1` [Compound 25, O=C(Nc1n(C2CCNCC2)c(c3n1)ccc(F)c3)Cc4ccc(F)cc4], which IC50 is on record?
**A.** Its IC50 is greater than 64 µM.

**Q.** Which IC50 does the source give for `O=C(Cc1ccc(Cl)cc1)Nc1nc2ccc(F)cc2n1CC(F)(F)F` [Compound 23, Fc1cc2c(nc(NC(=O)Cc3ccc(Cl)cc3)n2CC(F)(F)F)cc1] here?
**A.** Its IC50 is 45.2 µM.

System: not listed separately
Assay: MRC-5 cytotoxicity
Assay type: cell-based
Details: human, MRC-5 cells; S1 Data

**Q.** With `CN1CCC(n2c(NC(=O)c3ccnn3C)nc3ccc(C#N)cc32)CC1` [Compound 51, O=C(c1ccnn1C)Nc2nc(ccc(C#N)c3)c3n2C4CCN(C)CC4] as the compound, how does the CC50 read?
**A.** Its CC50 is greater than 64 µM.

**Q.** Which CC50 does the source give for `CC(C)(C)Cn1c(NC(=O)Cc2ccc(C(F)(F)F)cc2)nc2ccccc21` [Compound 20, CC(Cn1c(cccc2)c2nc1NC(Cc3ccc(C(F)(F)F)cc3)=O)(C)C] here?
**A.** Its CC50 is greater than 32 µM.

**Q.** Which CC50 does the source give for `O=C(Cc1ccc(F)cc1)Nc1nc2cc(F)ccc2n1C1CCNCC1` [Compound 25, O=C(Nc1n(C2CCNCC2)c(c3n1)ccc(F)c3)Cc4ccc(F)cc4] here?
**A.** The CC50 was greater than 64 µM.

**Q.** Which CC50 does the source give for `O=C(Cc1ccc(Cl)cc1)Nc1nc2ccc(F)cc2n1CC(F)(F)F` [Compound 23, Fc1cc2c(nc(NC(=O)Cc3ccc(Cl)cc3)n2CC(F)(F)F)cc1] here?
**A.** Its CC50 is greater than 64 µM.
